Legend:
Type in all cases: physicochemical
[1] = Accelerated stability test; settings: 40° C., 75% RH, 1-6 months
[2] = Solubility in solvents (description of the compound)
From the text: The compound of formula I, with a molecular formula of C21H13D3ClF3N4O3 and a molecular weight of 467.84, is a white or off-white crystal powder, odorless and tasteless.

[3] = Drug hygroscopicity test (Chinese Pharmacopoeia 2010 edition, Appendix XIX J); settings: humidistatic dryer (saturated ammonium sulfate) at 25° C.±1° C. for 24 hours
Protocol: Take 4 dry glass weighing bottles with a top (The outer diameter was 60 mm and height was 30 mm). On the day before the test, the bottles was placed in a glass dryer (A saturated ammonium sulfate solution was placed in the lower part thereof) in a thermostatic and humidistatic chamber at 25° C.±1° C. (hereinafter, “a humidistatic dryer at 25° C.±1° C.”). The weighing bottle and its top were placed separately without the top on the bottle. Cover the glass dryer closely.
After each empty weighing bottle together with its top were placed in a humidistatic dryer at 25° C.±1° C. for 24 hours, weigh a set (the weighing bottle+its top) as a unit precisely respectively, recorded as m1. Take a sample appropriately, tile it in a glass weighing bottle weighed at a sample thickness of about 1 mm, and cover the bottle. Precisely weigh the weighing bottle with its top and the sample, recorded as m2. […] Then take off the top of the weighing bottles, and put the bottle and its top in the humidistatic dryer at 25° C.±1° C. for 24 hours.
After each sample were placed in a humidistatic dryer at 25° C.±1° C. for 24 hours, cover the weighing bottles with their tops respectively, and precisely weigh each weighing bottle with its top and the sample at this specific moment, recorded as m3. […]

## CCO.Cc1ccc(S(=O)(=O)O)cc1.[2H]C([2H])([2H])NC(=O)c1cc(Oc2ccc(NC(=O)Nc3ccc(Cl)c(C(F)(F)F)c3)cc2)ccn1 [polymorph IV, ethanol solvate of the 1/1 p-toluenesulfonate of 4-(4-{3-[4-chloro-3-(trifluoromethyl)phenyl)-ureido]-phenoxy}-2-(N-1′,1′,1′-trideutero-methyl)pico linamide]
[1]
  stability of crystal form: very stable

## [2H]C([2H])([2H])NC(=O)c1cc(Oc2ccc(NC(=O)Nc3ccc(Cl)c(C(F)(F)F)c3)cc2)ccn1 [polymorph VI, 4-(4-{3-[4-chloro-3-(trifluoromethyl)phenyl)-ureido]-phenoxy}-2-(N-1′,1′,1′-trideutero-methyl)picolinamide]
[1]
  stability of crystal form: very stable

## [2H]C([2H])([2H])NC(=O)c1cc(Oc2ccc(NC(=O)Nc3ccc(Cl)c(C(F)(F)F)c3)cc2)ccn1 [compound of formula I, 4-(4-{3-[4-chloro-3-(trifluoromethyl)phenyl)-ureido]-phenoxy}-2-(N-1′,1′,1′-trideutero-methyl)picolinamide]
[2]; solvent acetone
  solubility in acetone: slightly soluble
[2]; solvent anhydrous ethanol
  solubility in anhydrous ethanol: slightly soluble
[2]; solvent dimethyl formamide
  solubility in dimethyl formamide: very soluble
[2]; solvent dimethyl sulfoxide
  solubility in dimethyl sulfoxide: very soluble
[2]; solvent glacial acetic acid
  solubility in glacial acetic acid: slightly soluble
[2]; solvent methanol
  solubility in methanol: sparingly soluble
[2]; solvent water
  solubility in water: practically insoluble

## Cc1ccc(S(=O)(=O)O)cc1.[2H]C([2H])([2H])NC(=O)c1cc(Oc2ccc(NC(=O)Nc3ccc(Cl)c(C(F)(F)F)c3)cc2)ccn1 [polymorph I, 1/1 p-toluenesulfonate of 4-(4-{3-[4-chloro-3-(trifluoromethyl)phenyl)-ureido]-phenoxy}-2-(N-1′,1′,1′-trideutero-methyl)picolinamide]
[1]
  stability of crystal form: very stable
[1]; compared to freshly prepared (0 Months)
  purity after accelerated stability test: above 99%
[3]
  hygroscopicity: no hygroscopicity
  weight increase (%): 0%

## Cc1ccc(S(=O)(=O)O)cc1.[2H]C([2H])([2H])NC(=O)c1cc(Oc2ccc(NC(=O)Nc3ccc(Cl)c(C(F)(F)F)c3)cc2)ccn1.[2H]C([2H])([2H])NC(=O)c1cc(Oc2ccc(NC(=O)Nc3ccc(Cl)c(C(F)(F)F)c3)cc2)ccn1 [polymorph V, 1/2 p-toluenesulfonate of 4-(4-{3-[4-chloro-3-(trifluoromethyl)phenyl)-ureido]-phenoxy}-2-(N-1′,1′,1′-trideutero-methyl)pico linamide]
[1]
  stability of crystal form: very stable

## CNC(=O)c1cc(Oc2ccc(NC(=O)Nc3ccc(Cl)c(C(F)(F)F)c3)cc2)ccn1.Cc1ccc(S(=O)(=O)O)cc1 [polymorph II, methanol solvate of the 1/1 p-toluenesulfonate of 4-(4-{3-[4-chloro-3-(trifluoromethyl)phenyl)-ureido]-phenoxy}-2-(N-1′,1′,1′-trideutero-methyl)pico linamide]
[1]
  stability of crystal form: very stable

Source: patent US9889123B2, “Polymorphs of deuterated omega-diphenylurea or salts thereof” (Suzhou Zelgen Biopharmaceuticals Co., Ltd., priority 2012, dated 2018)
